Data from the supplement of paper PMC11281043.
± gives the standard deviation of the averaged measurements.

Columns and labels:
[1] = tested on: Danio rerio embryo/larva; assay: BMC abnormal position; higher = less potent; settings: exposure: 6-8 hpf to 5 dpf, scored at 6 dpf
Method: (§1)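 Zebrafish embryos (with chorion) were exposed from 6-8 hpf to each PFAS (8-point half-log series, top concentration up to 100 uM, 0.4% DMSO, sealed plates, 26 C; n = 6 embryos per concentration), rinsed at 5 dpf and scored at 6 dpf by two blinded observers for mortality, hatching and malformations. Endpoint scores are the % of living larvae affected (dead larvae excluded; […]). Curves were fitted with tcpl (cutoff 16%), and the BMC is the concentration at a benchmark response of 21.6%.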

[2] = tested on: Danio rerio embryo/larva; assay: max % larvae with any abnormality across tested concentrations; max tested concentration (log10 uM): 2; higher = more toxic; extreme values may be limits of the assay; settings: exposure: 6-8 hpf to 5 dpf, scored at 6 dpf
[3] = tested on: Danio rerio embryo/larva; assay: BMC spinal defects; higher = less potent; settings: max tested concentration (log10 uM): 2; exposure: 6-8 hpf to 5 dpf, scored at 6 dpf
Method: as §1

[4] = tested on: Danio rerio embryo/larva; assay: max % larvae unhatched across tested concentrations; max tested concentration (log10 uM): 2; higher = more toxic; settings: exposure: 6-8 hpf to 5 dpf, scored at 6 dpf
[5] = tested on: Danio rerio embryo/larva; assay: BMC craniofacial defects; higher = less potent; settings: exposure: 6-8 hpf to 5 dpf, scored at 6 dpf
Method: as §1

[6] = tested on: Danio rerio embryo/larva; assay: BMC any abnormality; max tested concentration (log10 uM): 2; higher = less potent; settings: exposure: 6-8 hpf to 5 dpf, scored at 6 dpf
Method: as §1

[7] = tested on: Danio rerio embryo/larva; assay: BMC swim bladder non-inflation; higher = less potent; settings: exposure: 6-8 hpf to 5 dpf, scored at 6 dpf
Method: as §1

[8] = tested on: Danio rerio embryo/larva; assay: BMC edema; higher = less potent; settings: exposure: 6-8 hpf to 5 dpf, scored at 6 dpf
Method: as §1

[9] = tested on: Danio rerio embryo/larva; assay: BMC blood pooling; max tested concentration (log10 uM): 2; higher = less potent; settings: exposure: 6-8 hpf to 5 dpf, scored at 6 dpf
Method: as §1

[10] = tested on: Danio rerio embryo/larva; assay: BMC any abnormality; max tested concentration (log10 uM): 1.60206; higher = less potent; settings: exposure: 6-8 hpf to 5 dpf, scored at 6 dpf
Method: as §1

[11] = tested on: Danio rerio embryo/larva; assay: BMC mortality; max tested concentration (log10 uM): 1.60206; higher = less potent; settings: exposure: 6-8 hpf to 5 dpf, scored at 6 dpf
Method: as §1

[12] = tested on: Danio rerio embryo/larva; assay: max % larvae unhatched across tested concentrations; max tested concentration (log10 uM): 1.60206; higher = more toxic; settings: exposure: 6-8 hpf to 5 dpf, scored at 6 dpf
[13] = tested on: Danio rerio embryo/larva; assay: max % larvae with any abnormality across tested concentrations; max tested concentration (log10 uM): 1.60206; higher = more toxic; extreme values may be limits of the assay; settings: exposure: 6-8 hpf to 5 dpf, scored at 6 dpf
[14] = tested on: Danio rerio embryo/larva; assay: max % larvae dead across tested concentrations; max tested concentration (log10 uM): 1.60206; higher = more toxic; extreme values may be limits of the assay; settings: exposure: 6-8 hpf to 5 dpf, scored at 6 dpf
[15] = tested on: Danio rerio embryo/larva; assay: max % larvae dead across tested concentrations; max tested concentration (log10 uM): 2; higher = more toxic; extreme values may be limits of the assay; settings: exposure: 6-8 hpf to 5 dpf, scored at 6 dpf
[16] = tested on: Danio rerio embryo/larva; assay: max % larvae with any abnormality across tested concentrations; max tested concentration (log10 uM): 1.30103; higher = more toxic; extreme values may be limits of the assay; settings: exposure: 6-8 hpf to 5 dpf, scored at 6 dpf
[17] = tested on: Danio rerio embryo/larva; assay: max % larvae unhatched across tested concentrations; max tested concentration (log10 uM): 1.30103; higher = more toxic; settings: exposure: 6-8 hpf to 5 dpf, scored at 6 dpf
[18] = tested on: Danio rerio embryo/larva; assay: BMC mortality; max tested concentration (log10 uM): 2; higher = less potent; settings: exposure: 6-8 hpf to 5 dpf, scored at 6 dpf
Method: as §1

[19] = tested on: Danio rerio embryo/larva; assay: BMC any abnormality; max tested concentration (log10 uM): 1.90309; higher = less potent; settings: exposure: 6-8 hpf to 5 dpf, scored at 6 dpf
Method: as §1

[20] = tested on: Danio rerio embryo/larva; assay: max % larvae unhatched across tested concentrations; max tested concentration (log10 uM): 1.90309; higher = more toxic; settings: exposure: 6-8 hpf to 5 dpf, scored at 6 dpf
[21] = tested on: Danio rerio embryo/larva; assay: max % larvae with any abnormality across tested concentrations; max tested concentration (log10 uM): 1.90309; higher = more toxic; extreme values may be limits of the assay; settings: exposure: 6-8 hpf to 5 dpf, scored at 6 dpf
[22] = tested on: Danio rerio embryo/larva; assay: BMC tail defects; max tested concentration (log10 uM): 1.90309; higher = less potent; settings: exposure: 6-8 hpf to 5 dpf, scored at 6 dpf
Method: as §1

[23] = tested on: Danio rerio embryo/larva; assay: BMC blood pooling; max tested concentration (log10 uM): 1.90309; higher = less potent; settings: exposure: 6-8 hpf to 5 dpf, scored at 6 dpf
Method: as §1

[24] = tested on: Danio rerio embryo/larva; assay: max % larvae dead across tested concentrations; max tested concentration (log10 uM): 1.30103; higher = more toxic; extreme values may be limits of the assay; settings: exposure: 6-8 hpf to 5 dpf, scored at 6 dpf
[25] = tested on: Danio rerio embryo/larva; assay: BMC tail defects; max tested concentration (log10 uM): 2; higher = less potent; settings: exposure: 6-8 hpf to 5 dpf, scored at 6 dpf
Method: as §1

[26] = max tested concentration (log10 uM): 2
[27] = max tested concentration (log10 uM): 1.90309

Row | SMILES | max % larvae [2] [%] | max % larvae unhatched across tested concentrations [4] [%] | BMC any abnormality [6] [µM] | BMC swim bladder non-inflation [7, 26] [µM] | BMC edema [8, 26] [µM] | max % larvae unhatched across tested concentrations [12] [%] | max % larvae [13] [%] | max % larvae dead across tested concentrations [14] [%] | further results
1 | FC(F)(I)C(F)(F)C(F)(F)C(F)(F)C(F)(F)C(F)(F)I [1,6-Diiodoperfluorohexane] | 100 | 0 | 5.18 ± 4.7 | 6.49 ± 3.8 | 6.97 ± 5.2 |  |  |  | BMC abnormal position [1, 26]: 14.9 ± 17 µM; BMC spinal defects [3]: 7.34 µM; BMC craniofacial defects [5, 26]: 26.4 ± 3.9 µM; BMC blood pooling [9]: 14.5 ± 16 µM
2 | NCC(F)(F)C(F)(F)C(F)(F)C(F)(F)C(F)(F)C(F)(F)C(F)(F)C(F)(F)F [1H,1H-Perfluorononylamine] |  |  |  |  |  | 0 | 100 | 66.7 | BMC any abnormality [10]: 27.2 µM; BMC mortality [11]: 29.9 µM
3 | O=S(=O)(OCC(F)(F)F)C(F)(F)C(F)(F)C(F)(F)C(F)(F)F [2,2,2-Trifluoroethyl perfluorobutanesulfonate] | 95.5 | 0 | 29.4 | 77 | 32.7 |  |  |  | max % larvae dead across tested concentrations [15]: 0%; BMC blood pooling [9]: 35.5 µM
4 | FC(F)(F)C(F)(C(F)(F)F)C(F)(F)C(F)(F)CC1CO1 (centres undefined) [3-(Perfluoro-3-methylbutyl)-1,2-propenoxide] |  |  |  |  |  | 0 | 0 | 0 | 
5 | OCC(F)(F)C(F)(F)C(F)(F)C(F)(F)C(F)(F)C(F)(F)C(F)(F)C(F)(F)C(F)(F)C(F)(F)C(F)(F)F [11:1 Fluorotelomer alcohol] |  |  |  |  |  |  |  |  | max % larvae [16]: 8.33%; max % larvae unhatched across tested concentrations [17]: 0%
6 | C=C(C)C(=O)OCC(F)(F)C(F)(F)C(F)(F)C(F)(F)C(F)(F)C(F)(F)C(F)(F)F [(Perfluoroheptyl)methyl methacrylate] |  |  |  |  |  | 0 | 0 | 0 | 
7 | CO[Si](C)(CCC(F)(F)C(F)(F)C(F)(F)C(F)(F)C(F)(F)C(F)(F)F)OC [Dimethoxymethyl((perfluorohexyl)ethyl)silane] |  |  |  |  |  | 0 | 0 | 0 | 
8 | COC(=O)C(F)(F)C(F)(F)OC(F)(C(F)(F)F)C(F)(F)OC(F)=C(F)F (centres undefined) [Methyl perfluoro(3-(1-ethenyloxypropan-2-yloxy)propanoate)] |  |  |  |  |  | 0 | 8.33 | 0 | 
9 | O=S(=O)(Cl)C(F)(F)C(F)(F)C(F)(F)C(F)(F)C(F)(F)C(F)(F)C(F)(F)C(F)(F)F [Perfluoro-1-octanesulfonyl chloride] | 100 | 0 | 10.4 | 10.4 | 29.4 |  |  |  | BMC abnormal position [1, 26]: 92 µM; BMC spinal defects [3]: 95.8 µM; BMC mortality [18]: 77.9 µM; max % larvae dead across tested concentrations [15]: 83.3%
10 | O=S(=O)(O)C(F)(F)C(F)(F)C(F)(F)C(F)(F)C(F)(F)C(F)(F)C(F)(F)F [Perfluoroheptanesulfonic acid] |  |  |  |  |  |  |  |  | BMC any abnormality [19]: 15.6 µM; BMC abnormal position [1, 27]: 17.7 µM; max % larvae unhatched across tested concentrations [20]: 0%; BMC craniofacial defects [5, 27]: 18.1 µM; max % larvae [21]: 100%; BMC swim bladder non-inflation [7, 27]: 15.6 µM; BMC edema [8, 27]: 18.5 µM; BMC tail defects [22]: 27 µM; BMC blood pooling [23]: 61 µM
11 | O=C(O)C(F)(F)C(F)(F)C(F)(F)C(F)(F)C(F)(F)C(F)(F)C(F)(F)C(F)(F)C(F)(F)C(F)(F)C(F)(F)C(F)(F)C(F)(F)F [Perfluorotetradecanoic acid] |  |  |  |  |  |  |  |  | max % larvae [16]: 12.5%; max % larvae unhatched across tested concentrations [17]: 0%; max % larvae dead across tested concentrations [24]: 0%
12 | O=C(O)C(F)(F)C(F)(F)C(F)(F)C(F)(F)C(F)(F)C(F)(F)C(F)(F)C(F)(F)C(F)(F)C(F)(F)C(F)(F)C(F)(F)F [Perfluorotridecanoic acid] |  |  |  |  |  |  |  |  | max % larvae [16]: 16.7%; max % larvae unhatched across tested concentrations [17]: 0%; max % larvae dead across tested concentrations [24]: 0%
13 | O=S(=O)(O)C(F)(F)C(F)(F)C(F)(F)C(F)(F)C(F)(F)C(F)(F)C(F)(F)C(F)(F)F [Potassium perfluorooctanesulfonate] | 100 | 0 | 2.77 | 2.81 | 4.65 |  |  |  | BMC abnormal position [1, 26]: 3.99 µM; BMC spinal defects [3]: 26 µM; BMC tail defects [25]: 27.8 µM; BMC craniofacial defects [5, 26]: 8.25 µM; BMC blood pooling [9]: 10.5 µM
